From patent publication US20210130769A1, “Method for Single Cell Encapsulation via Metabolic Glycoengineering and Copper-Free Click Chemistry” (The Board of Trustees Of the Leland Stanford Junior …, priority 2019, published 2021)
“Also recorded” adds a separate entry of the source.

Tested on: actin polymerization
Test: Inhibition study: actin polymerization inhibitor/activator, VEGFB ELISA
Assay type: cell-based, human
Settings: 24 hr
Experimental: After cell encapsulation with two different molecular weight polymers such as 5 kDa and 30 kDa, the cells were rinsed and resuspended in the media containing actin polymerization inhibitor (Cytochalastin D (CytoD): 2 μM) and activator (lysophosphatidic (LPA): […] After the incubation for 24 hr with different pharmacological chemicals, the supernatants from different treatment groups were collected to measure VEGFB production from the cells using ELISAs as above.

Row | Molecule | VEGFB production in 30 kDa encapsulated NPCs (LPA) | VEGFB concentration in NPCs coated with 30 kDa PEG (2 μM CytoD) | VEGFB production in NPCs coated with 5 kDa PEG (2 μM CytoD)
1 | lysophosphatidic acid [LPA] | significantly different from other groups; also recorded: decreased production of VEGFB | – | –
2 | C=C1[C@@H](C)[C@H]2[C@H](Cc3ccccc3)NC(=O)[C@]23[C@H](OC(C)=O)/C=C/[C@@](C)(O)C(=O)[C@@H](C)C/C=C/[C@H]3[C@@H]1O [CytoD, Cytochalastin D] | – | not significantly different | significantly different from other groups; also recorded: increased VEGFB production
